Entries after “also recorded” stand apart in the source; their conditions may differ.
What was measured:
[1] = molecular target: T1, PARK7 (Homo sapiens, UniProt Q99497); experiment: Hit validation and pure-compound testing in the PARK7 FP assay with JYQ-107; format: biochemical; settings: pure compounds
T1 sequence (Q99497 1-189): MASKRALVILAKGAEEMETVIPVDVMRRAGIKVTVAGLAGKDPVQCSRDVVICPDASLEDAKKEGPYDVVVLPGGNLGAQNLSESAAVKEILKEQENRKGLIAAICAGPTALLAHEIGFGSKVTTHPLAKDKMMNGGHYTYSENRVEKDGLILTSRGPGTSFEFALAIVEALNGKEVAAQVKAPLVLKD

[2] = molecular target: T1, PARK7; experiment: Cell-based competition assay with probe JYQ-92 in HEK293T cells; settings: intact HEK293T cells, concentration series, 24 h
Method: Samples were resolved by SDS-PAGE and analyzed by fluorescence scanning and Western blotting (Figure 2B). The target engagement of cellular PARK7 is reflected by the disappearance of the PARK7 labeling band in the fluorescence gel scan and by the loss of the shifted probe-labeled PARK7 band in the Western blot.
HEK293T cells were treated with the indicated concentrations of indicated inhibitors for indicated incubation time.
Figure S1. Assessment of the cell permeability of JYQ -88. (A) Structure of JYQ-92.
(B) Target engagement of JYQ-88 in HEK293T cells. HEK293T cells were incubated […]
with PARK7 probe JYQ-92 fo r 1 h at 37 °C. The reactions were stopped by the addition of NuPAGE™ LDS sample buffer (4x). Samples were resolved by SDS -PAGE using […]
fluorescence scanning on a Typhoon FLA 9500 (GE Healthcare Life Sciences) using […]
The disappearance of the JYQ-92-labeled band in […]
of JYQ-88 is used as a measurement of cellular PARK7 engagement with JYQ -88.
(1 picture or pasted object on this page, not shown here)

[3] = molecular target: T1, PARK7; settings: read-out: IC50 (nM) DiFUMAc; 0.1 μM PARK7, 1 h preincubation, 300 μM DiFMUAc
Method: Compounds were transferred using a Labcyte Echo550 acoustic dispenser to obtain a 12-point serial dilution of 0.001–100 μM. Next, PARK7 (15 μL, final concentration 0.1 μM) was dispensed with a Biotek MultiFlowFX liquid dispenser and incubated for 1 h, followed by dispensing the substrate DiFMUAc (5 μL, final concentration 300 μM). The fluorescence intensity (FI) signal was monitored on a BMG Labtech PHERAstar plate reader (λex/em 350/450 nm) for 1 h.

[4] = molecular target: T1, PARK7; experiment: Probe labeling of endogenous PARK7 in cells (HEK293T, A549); format: cell-based; settings: for labeling of PARK7 in cells / cellular PARK7 labeling efficiency over time: 5 μM; for labeling of PARK7 in cells: 24 h; for cellular PARK7 labeling efficiency over time: A549 cells, indicated time points
Method: To further investigate the ability of these probes to visualize PARK7 in cells, HEK293T and A549 cells were incubated with 5 μM of these probes for 24 h, followed by cell lysis, SDS-PAGE, fluorescence scanning, and immunostaining (Supporting Information Figure S7). […] We also observed a band shift of the PARK7 protein in the samples treated with JYQ-192, JYQ-196, and JYQ-197 by immunoblot against PARK7 in A549 cells. […] Therefore, we further investigated JYQ-192, JYQ-196, and JYQ-197. To characterize their cell permeability, A549 cells were incubated with 5 μM final concentration of these probes for the indicated time points, followed by confocal microscopy and by cell lysis, SDS-PAGE, fluorescence scanning, and immunostaining. All three probes already entered the cells after 1 h incubation (Supporting Information Figure S8A). […] Besides PARK7, we observed extra bands in the fluorescence scan for both HEK293T and A549 cells and a very strong band labeling between 55 and 75 kDa in A549 cells with a 5 μM final concentration of all probes.
Despite the fact that probe JYQ-196 outperformed SulfoCy5 probes JYQ-192 and JYQ-197 in terms of the cellular PARK7 labeling efficiency, this probe still lacked specificity toward PARK7. PARK7 is known to form dimers, trimers, and even high-molecular-weight complexes under nonreducing conditions.[29],[30] […] To investigate further whether lower concentrations of JYQ-196 can decrease unspecific labeling, HEK293T and A549 cells were incubated with increased concentrations (0–10 μM) of JYQ-196 for 4 h, followed by cell lysis, SDS-PAGE, fluorescence scanning, and immunostaining (Figure 4C).
Oligos used to knockdown PARK7 were purchased from Dharmacon (Cat#: MQ-005984-00-0002). Silencing was performed in HEK293T and A549 cells as follows: for a 24-well plate format, 50 μL of siRNA (500 nM stock) was incubated with 1 μL of Dharmafect reagent 1 (Dharmacon) diluted in 50 μL of medium without supplements (total volume of 100 μL of transfection mix) with gentle shaking for 20 min at room temperature (RT). A total of 30 × 10^3 HEK293T or 50 × 10^3 cells were added to transfection mixes to a total volume of 500 μL per well and cultured for 48 h prior to incubation with 5 μM final concentration of JYQ-196 for 4 h.
HEK293T or A549 cells were incubated with indicated concentration of the probes for the indicated time points, followed by cell lysis and adding loading buffer (4x).

[5] = molecular target: T1, PARK7; experiment: Probe labeling of purified recombinant PARK7; settings: 1 μM PARK7, 1 h, 37 °C
Method: The ability of these probes to label and visualize PARK7 activity in vitro was evaluated by treating recombinant human PARK7 protein (1 μM) with a concentration series of the probes for 1 h at 37 °C, followed by SDS-PAGE analysis under nondenaturing conditions (without boiling and β-mercaptoethanol).
The assay was conducted in Tris-buffer (50 mM Tris-HCl, 150 mM NaCl, 2 mM TCEP, pH 7.5). PARK7 (1 μM final concentration) was incubated with different concentrations (0, 0.1, 0.5, 1, 2, 5, and 10 μM) of the indicated probes for 1 h at 37 °C. After completing the incubation time, all of the reactions were stopped by adding NuPAGE LDS sample buffer (4x).

Structure (SMILES) | inhibition at 0.25 µM ([1]; 0.25 µM, read-out: % Inhibition 0.25 µM) | inhibition at 1 µM ([1]; 1 µM) | cellular PARK7 engagement of JYQ-88 [2] | IC50 [3] | labeling of PARK7 in cells ([4]; HEK293T and A549 cells) | probe concentration giving complete labeling of recombinant PARK7 (Coomassie band shift) [5] | cellular PARK7 labeling efficiency over time [4] | specificity of labeling (PARK7 siRNA depletion) ([4]; HEK293T and A549 cells, siPARK7 48 h, then 5 μM for 4 h)
N#CN1CC[C@@H](C(=O)Nc2nc3c(s2)CN(C(=O)CN=[N+]=[N-])CC3)C1 [JYQ-88, reference compound] | 55.4% | 83.2% | did not show inhibition of PARK7 in cells; also recorded: poor cellular engagement | 120 nM | – | – | – | –
CC1=CC(C)=[N+]2C1=C(CCCCc1cn(CC(=O)N3CCN(S(=O)(=O)c4cccc(C(=O)N5CCc6nc(NC(=O)[C@@H]7CCN(C#N)C7)sc6C5)c4)CC3)nn1)c1c(C)cc(C)n1[B-]2(F)F [JYQ-191] | – | – | – | – | inefficient labeling of cellular PARK7 | 5 µM | – | –
CC[N+]1=C(/C=C/C=C/C=C2/N(CCCCCC(=O)NCCCc3cn(CC(=O)N4CCN(S(=O)(=O)c5cccc(C(=O)N6CCc7nc(NC(=O)[C@@H]8CCN(C#N)C8)sc7C6)c5)CC4)nn3)c3ccc(S(=O)(=O)[O-])cc3C2(C)C)C(C)(C)c2cc(S(=O)(=O)O)ccc21 [JYQ-192] | – | – | – | – | clear band around 25 kDa | 2 µM | labeled a small portion of cellular PARK7 even after 24 h incubation | –
CC1=CC(C)=[N+]2C1=C(CCCCc1cn(-c3ccc(F)c(C(=O)N4CCc5nc(NC(=O)[C@@H]6CCN(C#N)C6)sc5C4)c3)nn1)c1c(C)cc(C)n1[B-]2(F)F [JYQ-196] | – | – | – | – | clear band around 25 kDa | 2 µM | complete labeling of cellular PARK7 after 4 h incubation | unspecific labeling of other proteins
CC[N+]1=C(/C=C/C=C/C=C2/N(CCCCCC(=O)NCCCc3cn(-c4ccc(F)c(C(=O)N5CCc6nc(NC(=O)[C@@H]7CCN(C#N)C7)sc6C5)c4)nn3)c3ccc(S(=O)(=O)O)cc3C2(C)C)C(C)(C)c2cc(S(=O)(=O)[O-])ccc21 [JYQ-197] | – | – | – | – | clear band around 25 kDa | 1 µM | labeled a small portion of cellular PARK7 even after 24 h incubation | –
O=C1C(=O)N(CCc2ccccc2)c2ccc(F)cc21 [STK793590] | – | – | – | 130 nM | – | – | – | –

From article PMC11129182, “Development of Inhibitors, Probes, and PROTAC Provides a Complete Toolbox to Study PARK7 in the Living Cell” (Journal of Medicinal Chemistry, 2024)
